From patent publication US20220132862A1, “PSEUDOMONAS SP. STRAIN, COMPOSITION COMPRISING THE SAME, AND USES THEREOF” (FUTURECO BIOSCIENCE, S.A., priority 2019, published 2022)

test system: B2021; assay: Antibiotic resistance, MIC by broth microdilution (BMD); assay type: cell-based, Pseudomonas sp.; details: lowest antibiotic concentration that inhibited 80% of growth; LB, 18 h, 28° C.
Method: Minimum inhibitory concentrations (MICs) for tested antibiotics were determined by the broth microdilution (BMD) method. Four antibiotics were used: Streptomycin Sulfate, Nalidixic Acid, Oxytetracycline and Erythromycine. Briefly. MICs were determined in sterile 96-well plates by two-fold serial dilutions in 100 μL of LB. […] The MIC was defined as the lowest antibiotic concentration that inhibited 80% of growth (based on OD measurements) in comparison to the control. Moreover, cell viability was confirmed by addition of 30 μL of 0.01% resazurin. Any color changes from blue-purple to pink were recorded as positive and the MIC was defined as the lowest antibiotic concentration lacking this color change.

Compound | Antibiotic resistance (MIC) [µg/mL]
CC[C@H]1OC(=O)[C@H](C)[C@@H](O[C@H]2C[C@@](C)(OC)[C@@H](O)[C@H](C)O2)[C@H](C)[C@@H](O[C@@H]2O[C@H](C)C[C@H](N(C)C)[C@H]2O)[C@](C)(O)C[C@@H](C)C(=O)[C@H](C)[C@@H](O)[C@]1(C)O [Erythromycine] | 240
CCn1cc(C(=O)O)c(=O)c2ccc(C)nc21 [Nalidixic Acid] | 240
CN(C)[C@@H]1C(O)=C(C(N)=O)C(=O)[C@@]2(O)C(O)=C3C(=O)c4c(O)cccc4[C@@](C)(O)[C@H]3[C@H](O)[C@@H]12 [Oxytetracycline] | 3.13
Streptomycine Sulfate | 1600
